# Source: patent US9441261B2, “Use of bacterial beta-lactamase for in vitro diagnostics and in vivo imaging, diagnostics and therapeutics” (priority 2008, dated 2016)
# “Also recorded” adds a separate entry of the source. Like-named read-outs stand apart in the source and are kept apart here.
# Legend:
# [1] = biological target: T1, TEM-1 Bla (Escherichia coli, UniProt P62593); assay type: biochemical, E. coli; conditions: for hydrolysis by TEM-1 bla: in words
# [2] = biological target: Bla (Escherichia coli, UniProt P62593); assay type: biochemical; conditions: CC1 versus analog without inserted double bond
# Sequence of Bla (P62593 24-286 limits assumed): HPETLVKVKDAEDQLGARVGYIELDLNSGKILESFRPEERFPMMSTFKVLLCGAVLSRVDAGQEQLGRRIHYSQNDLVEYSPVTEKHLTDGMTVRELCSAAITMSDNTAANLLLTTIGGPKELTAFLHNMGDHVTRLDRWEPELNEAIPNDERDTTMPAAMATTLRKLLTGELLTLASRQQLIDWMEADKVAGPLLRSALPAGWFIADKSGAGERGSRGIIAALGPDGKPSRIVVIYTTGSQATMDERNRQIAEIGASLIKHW
# [3] = system: Bla in live E. coli; assay: Detection of Bla activity in living E. coli; assay type: cell-based; conditions: E. coli with ampicillin resistant plasmid, LB media
# [4] = biological target: T2, Mtb BlaC (Mycobacterium tuberculosis, UniProt P9WKD3); assay: Hydrolysis kinetics of coumarin-based lactam probes by Mtb BlaC (fluorescence of released 7-hydroxycoumarin); assay type: biochemical
# T2 sequence (P9WKD3 35-307): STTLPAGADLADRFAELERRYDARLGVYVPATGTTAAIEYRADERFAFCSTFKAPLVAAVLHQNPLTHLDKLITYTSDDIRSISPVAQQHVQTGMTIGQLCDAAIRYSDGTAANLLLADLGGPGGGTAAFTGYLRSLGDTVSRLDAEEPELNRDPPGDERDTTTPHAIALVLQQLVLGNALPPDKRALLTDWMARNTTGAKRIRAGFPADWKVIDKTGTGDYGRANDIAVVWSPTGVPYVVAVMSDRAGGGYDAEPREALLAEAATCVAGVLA
# [5] = biological target: T2, Mtb BlaC; assay type: biochemical; conditions: for enzyme preference Mtb BlaC versus TEM-1 Bla: in words
# [6] = biological target: T1, TEM-1 Bla; conditions: cefoperazone versus CNIR5
# [7] = system: Bacillus Calmette-Guerin; assay type: cell-based, Mycobacterium bovis; conditions: 2 ng/μl rifampicin or 0.2 ng/μl INH, sputum, CDG-OMe, 24 hour
# [8] = system: CCN1CCN(C(=O)N[C@@H](C(=O)N[C@@H]2C(=O)N3C(C(=O)O)=C(CSc4nnnn4C)CS[C@H]23)c2ccc(O)cc2)C(=O)C1=O; assay: purified protein, by the assay type
# T1 sequence (P62593 24-286 limits assumed): as the sequence (P62593 24-286 limits assumed) above
compound,measurement,setting,value
CO[C@@]1(NC(C)=O)C(=O)N2C(C(=O)O)=C(COc3ccc4ccc(=O)oc4c3)CS[C@@H]21 [4-64],hydrolysis by TEM-1 bla,[1],so slow that cannot be determined
O=C(Cc1ccccc1)N[C@@H]1C(=O)N2C(C(=O)O)=C(/C=C\COc3ccc4ccc(=O)oc4c3)CS[C@H]12 [CC1],increase in the catalytic efficiency by the inserted double bond,[2],~5 fold
CCCC(=O)Oc1cc2oc(=O)c(C(=O)NCC(=O)N[C@@H]3C(=O)N4C(C(=O)OCOC(C)=O)=C(CSc5ccc6c(c5)C(=O)OC65c6ccc(OC(C)=O)cc6Oc6cc(OC(C)=O)ccc65)CS[C@H]34)cc2cc1Cl [CCF2/AM],detection of Bla in live E. coli,[3],not detected
O=C(Cc1ccccc1)N[C@@H]1C(=O)N2C(C(=O)O)=C(COc3ccc4ccc(=O)oc4c3)CS[C@H]12 [CDC-1],enzyme preference Mtb BlaC versus TEM-1 Bla,[4]; in words,TEM-1 Bla-preferred
O=C(Cc1ccccc1)N[C@@H]1C(=O)N2C(C(=O)O)=C(COc3ccc4ccc(=O)oc4c3)C[S+]([O-])[C@H]12 (some centres unmarked) [CDC-2],kcat,[4]; blaC,0.51 s⁻¹
same,kcat,[1]; TEM-1 bla,7 s⁻¹
CCO[C@@]1(NC(=O)Cc2ccccc2)C(=O)N2C(C(=O)O)=C(COc3ccc4ccc(=O)oc4c3)CS[C@@H]21 [CDC-OEt],hydrolysis by TEM-1 bla,[1],so slow that cannot be determined
CO[C@@]1(NC(=O)Cc2ccccc2)C(=O)N2C(C(=O)O)=C(COc3ccc4ccc(=O)oc4c3)CS[C@@H]21 [CDC-OMe],kcat/Km for blaC larger than for TEM-1 bla,[4],"1,400 fold"
CCN1CCN(C(=O)N[C@@H](C(=O)N[C@@H]2C(=O)N3C(C(=O)O)=C(CSc4nnnn4C)CS[C@H]23)c2ccc(O)cc2)C(=O)C1=O [cefoperazone],faster kinetics with the Mtb enzyme than the TEM-1 enzyme,[5],10-100 fold
same,enzyme preference Mtb BlaC versus TEM-1 Bla,[5],preferred substrate for Mtb BlaC as compared to TEM-1 Bla; also recorded: better kinetics with the Mtb BlaC than TEM-1
same,kcat/KM for TEM-1 Bla smaller than that of CNIR5,[6],100 fold
CO/N=C(\C(=O)N[C@@H]1C(=O)N2C(C(=O)O)=C(COC(C)=O)CS[C@H]12)c1csc(N)n1 [cefotaxime],enzyme preference Mtb BlaC versus TEM-1 Bla,[5],better kinetics with the Mtb BlaC than TEM-1
CO[C@@]1(NC(=O)Cc2cccs2)C(=O)N2C(C(=O)O)=C(COC(N)=O)CS[C@@H]21 [cefoxitin],enzyme preference Mtb BlaC versus TEM-1 Bla,[5],better kinetics with the Mtb BlaC than TEM-1
NNC(=O)c1ccncc1 [isoniazide],fluorescence of BCG with drug over time,[7],effectively no increase in fluorescence
Mtb BlaC (Mycobacterium tuberculosis H37Rv),Km,[8],76 µM
same,kcat,[8],2.01 s⁻¹
same,kcat/Km,[8],26000 M⁻¹ s⁻¹
TEM-1 Bla (Escherichia coli),Km,[8]; other: TEM-1 Bla,262 µM
same,kcat,[8]; other: TEM-1 Bla,0.26 s⁻¹
same,kcat/Km,[8]; other: TEM-1 Bla,1000 M⁻¹ s⁻¹
